Measurements from ChEMBL document CHEMBL1649203, “Pharmacokinetics and safety of famciclovir in children with herpes simplex or varicella-zoster virus infection” (Antimicrob Agents Chemother, 2009).

What was measured:
Homo sapiens [1] = experiment: Toxicity in VZV-infected 2 to <6 years aged pediatric patient assessed as incidence of abdominal pain at 40.6 mg/kg, po tid; assay type: organism-based, Abdomen; design: dose 40.6 mg/kg, route oral; conditions: in vivo
Homo sapiens [2] = experiment: AUC (0 to infinity) in 1 to <2 years aged pediatric patient administered as single dose; assay type: ADME, organism-based, Plasma; design: time infinity; conditions: in vivo
Homo sapiens [3] = experiment: Toxicity in VZV-infected 1 to <2 years aged pediatric patient assessed as incidence of cellulitis at 40.8 mg/kg, po tid; assay type: organism-based; design: dose 40.8 mg/kg, route oral; conditions: in vivo
Homo sapiens [4] = experiment: Toxicity in VZV-infected 6 to <=12 years aged pediatric patient assessed as incidence of nausea at 35.5 mg/kg, po tid; assay type: organism-based; design: dose 35.5 mg/kg, route oral; conditions: in vivo
Homo sapiens [5] = experiment: Toxicity in VZV-infected 2 to <6 years aged pediatric patient assessed as incidence of cellulitis at 40.6 mg/kg, po tid; assay type: organism-based; design: dose 40.6 mg/kg, route oral; conditions: in vivo
[6] = Cmax in 2 to <6 years aged pediatric patient administered as single dose; assay type: ADME, organism-based; conditions: human, in vivo
Homo sapiens [7] = experiment: Toxicity in orally dosed HSV-infected patient assessed as pyrexia administered as bid; assay type: organism-based; conditions: in vivo, po
Homo sapiens [8] = experiment: Toxicity in HSV-infected 2 to <6 years aged pediatric patient assessed as incidence of cough at 27.6 mg/kg, po bid; assay type: organism-based; design: dose 27.6 mg/kg, route oral; conditions: in vivo
Homo sapiens [9] = experiment: Toxicity in HSV-infected 1 to <2 years aged pediatric patient assessed as incidence of diarrhea at 30.9 mg/kg, po bid; assay type: organism-based; design: dose 30.9 mg/kg, route oral; conditions: in vivo
Homo sapiens [10] = experiment: Toxicity in VZV-infected 6 to <=12 years aged pediatric patient assessed as pyrexia at 35.5 mg/kg, po tid; assay type: organism-based; design: dose 35.5 mg/kg, route oral; conditions: in vivo
Homo sapiens [11] = experiment: Toxicity in VZV-infected 6 to <=12 years aged pediatric patient assessed as incidence of headache at 35.5 mg/kg, po tid; assay type: organism-based; design: dose 35.5 mg/kg, route oral; conditions: in vivo
Homo sapiens [12] = experiment: Toxicity in VZV-infected 6 to <=12 years aged pediatric patient assessed as incidence of cellulitis at 35.5 mg/kg, po tid; assay type: organism-based; design: dose 35.5 mg/kg, route oral; conditions: in vivo
Homo sapiens [13] = experiment: Toxicity in orally dosed HSV-infected patient assessed as incidence of abdominal pain administered as bid; assay type: organism-based, Abdomen; conditions: in vivo, po
Homo sapiens [14] = experiment: Toxicity in HSV-infected 6 to <=12 years aged pediatric patient assessed as at least one adverse event at 23.5 mg/kg, po bid; assay type: organism-based; design: dose 23.5 mg/kg, route oral; conditions: in vivo
[15] = Half life in 6 to <=12 years aged pediatric patient administered as single dose; assay type: ADME, organism-based; conditions: human, in vivo
Homo sapiens [16] = experiment: Toxicity in orally dosed HSV-infected patient assessed as incidence of diarrhea administered as bid; assay type: organism-based; conditions: in vivo, po
Homo sapiens [17] = experiment: Toxicity in VZV-infected 2 to <6 years aged pediatric patient assessed as incidence of diarrhea at 40.6 mg/kg, po tid; assay type: organism-based; design: dose 40.6 mg/kg, route oral; conditions: in vivo
Homo sapiens [18] = experiment: AUC (0 to infinity) in 2 to <6 years aged pediatric patient administered as single dose; assay type: ADME, organism-based, Plasma; design: time infinity; conditions: in vivo
[19] = Apparent oral clearance in 6 to <=12 years aged pediatric patient administered as single dose; assay type: ADME, organism-based; conditions: human, in vivo
Homo sapiens [20] = experiment: Toxicity in orally dosed VZV-infected patient assessed as incidence of vomiting administered as tid; assay type: organism-based; conditions: in vivo, po
Homo sapiens [21] = experiment: Toxicity in VZV-infected 2 to <6 years aged pediatric patient assessed as incidence of pruritus at 40.6 mg/kg, po tid; assay type: organism-based; design: dose 40.6 mg/kg, route oral; conditions: in vivo
Homo sapiens [22] = experiment: Toxicity in orally dosed VZV-infected patient assessed as incidence of pruritus administered as tid; assay type: organism-based; conditions: in vivo, po
Homo sapiens [23] = experiment: Toxicity in HSV-infected 2 to <6 years aged pediatric patient assessed as incidence of vomiting at 27.6 mg/kg, po bid; assay type: organism-based; design: dose 27.6 mg/kg, route oral; conditions: in vivo
Homo sapiens [24] = experiment: Toxicity in HSV-infected 6 to <=12 years aged pediatric patient assessed as pyrexia at 23.5 mg/kg, po bid; assay type: organism-based; design: dose 23.5 mg/kg, route oral; conditions: in vivo
Homo sapiens [25] = experiment: AUC (0 to last) in 6 to <=12 years aged pediatric patient administered as single dose; assay type: ADME, organism-based, Plasma; design: time 0 - last; conditions: in vivo
Homo sapiens [26] = experiment: Toxicity in VZV-infected 6 to <=12 years aged pediatric patient assessed as incidence of abdominal pain at 35.5 mg/kg, po tid; assay type: organism-based, Abdomen; design: dose 35.5 mg/kg, route oral; conditions: in vivo
[27] = Tmax in 6 to <=12 years aged pediatric patient administered as single dose; assay type: ADME, organism-based; conditions: human, in vivo
Homo sapiens [28] = experiment: Toxicity in VZV-infected 1 to <2 years aged pediatric patient assessed as incidence of nausea at 40.8 mg/kg, po tid; assay type: organism-based; design: dose 40.8 mg/kg, route oral; conditions: in vivo
[29] = Tmax in 2 to <6 years aged pediatric patient administered as single dose; assay type: ADME, organism-based; conditions: human, in vivo
Homo sapiens [30] = experiment: Toxicity in HSV-infected 2 to <6 years aged pediatric patient assessed as incidence of nausea at 27.6 mg/kg, po bid; assay type: organism-based; design: dose 27.6 mg/kg, route oral; conditions: in vivo
Homo sapiens [31] = experiment: Toxicity in HSV-infected 1 to <2 years aged pediatric patient assessed as incidence of abdominal pain at 30.9 mg/kg, po bid; assay type: organism-based, Abdomen; design: dose 30.9 mg/kg, route oral; conditions: in vivo
Homo sapiens [32] = experiment: Toxicity in VZV-infected 2 to <6 years aged pediatric patient assessed as at least one adverse event at 40.6 mg/kg, po tid; assay type: organism-based; design: dose 40.6 mg/kg, route oral; conditions: in vivo
Homo sapiens [33] = experiment: Toxicity in HSV-infected 6 to <=12 years aged pediatric patient assessed as incidence of nausea at 23.5 mg/kg, po bid; assay type: organism-based; design: dose 23.5 mg/kg, route oral; conditions: in vivo
Homo sapiens [34] = experiment: Toxicity in orally dosed HSV-infected patient assessed as incidence of cough administered as bid; assay type: organism-based; conditions: in vivo, po
[35] = Half life in 1 to <2 years aged pediatric patient administered as single dose; assay type: ADME, organism-based; conditions: human, in vivo
Homo sapiens [36] = experiment: Toxicity in VZV-infected 2 to <6 years aged pediatric patient assessed as pyrexia at 40.6 mg/kg, po tid; assay type: organism-based; design: dose 40.6 mg/kg, route oral; conditions: in vivo

## Nc1nc2c(ncn2CCC(CO)CO)c(=O)[nH]1 [PENCICLOVIR]
Homo sapiens [1]
  Activity: 0%
Homo sapiens [2]
  AUC: 7.16 ug/hr.ml
Homo sapiens [3]
  Activity: 0%
Homo sapiens [4]
  Activity: 6.3%
Homo sapiens [5]
  Activity: 5.3%
[6]
  Cmax: 2780 ng/mL
Homo sapiens [7]
  Activity: 4.3%
Homo sapiens [8]
  Activity: 6.3%
Homo sapiens [9]
  Activity: 7.7%
Homo sapiens [10]
  Activity: 6.3%
Homo sapiens [11]
  Activity: 12.5%
Homo sapiens [12]
  Activity: 6.3%
Homo sapiens [13]
  Activity: 4.3%
Homo sapiens [14]
  Activity: 66.7%
[15]
  half-life: 1.62 h
Homo sapiens [16]
  Activity: 8.5%
Homo sapiens [17]
  Activity: 5.3%
Homo sapiens [18]
  AUC: 7.23 ug/hr.ml
[19]
  CL/F: 578 mL/min
Homo sapiens [20]
  Activity: 9.4%
Homo sapiens [21]
  Activity: 0%
Homo sapiens [22]
  Activity: 3.8%
Homo sapiens [23]
  Activity: 6.3%
Homo sapiens [24]
  Activity: 0%
Homo sapiens [25]
  AUC: 7.98 ug/hr.ml
Homo sapiens [26]
  Activity: 12.5%
[27]
  Tmax: 1 h
Homo sapiens [28]
  Activity: 0%
[29]
  Tmax: 1.07 h
Homo sapiens [30]
  Activity: 0%
Homo sapiens [31]
  Activity: 0%
Homo sapiens [32]
  Activity: 52.6%
Homo sapiens [33]
  Activity: 11.1%
Homo sapiens [34]
  Activity: 6.4%
[35]
  half-life: 1.2 h
Homo sapiens [36]
  Activity: 5.3%
